In ChEMBL document CHEMBL1129930, “Analogues of methotrexate in rheumatoid arthritis. 2. Effects of 5-deazaaminopterin, 5,10-dideazaaminopterin, and analogues on type II collagen-induced arthritis in mice” (J Med Chem, 1997) one finds Paw swelling and Animals data, which are given here for one compound.

Common to all, as to type: functional
Experiment [1] has as its system Mus musculus. Briefly: Tested for antiinflammatory activity on mouse type II collagen arthritis as Paw swelling of all animals in each group on day 37 at intraperitoneal dose of 0.047 mg/kg.
Experiment [2] concerns Mus musculus. Briefly: Tested for antiinflammatory activity on mouse type II collagen arthritis as Paw swelling of all animals in each group on day 37 at intraperitoneal dose of 0.094 mg/kg.
The subject of experiment [3] is Mus musculus. The experiment is described as follows: Tested for antiinflammatory activity on mouse type II collagen arthritis as Paw swelling of all animals in each group on day 23 at intraperitoneal dose of 0.75 mg/kg.
In experiment [4] the test system is Mus musculus. Briefly: Incidence of disease (mouse type II collagen) was scored as the percentage of animals within each experimental group that exhibited joint or limb inflammation on day 30 at intraperitoneal dose of 0.38 mg/kg (deaths observed at 1.5 mg/kg).
The test system of experiment [5] is Mus musculus. The experiment is described as follows: Tested for antiinflammatory activity on mouse type II collagen arthritis as Paw swelling of all animals in each group on day 30 at intraperitoneal dose of 0.047 mg/kg.
Experiment [6] relates to Mus musculus. Briefly: Tested for antiinflammatory activity on mouse type II collagen arthritis as Paw swelling of all animals in each group on day 44 at intraperitoneal dose of 0.024 mg/kg.
In experiment [7] the test system is Mus musculus. The experiment is described as follows: Tested for antiinflammatory activity on mouse type II collagen arthritis as Paw swelling of all animals in each group on day 23 at intraperitoneal dose of 0.19 mg/kg.
For experiment [8], the system named is Mus musculus. Briefly: Incidence of disease (mouse type II collagen) was scored as the percentage of animals within each experimental group that exhibited joint or limb inflammation on day 37 at intraperitoneal dose of 0.38 mg/kg (deaths observed at 1.5 mg/kg).
Experiment [9] deals with Mus musculus. Briefly: Incidence of disease (mouse type II collagen) was scored as the percentage of animals within each experimental group that exhibited joint or limb inflammation on day 44 at intraperitoneal dose of 0.75 mg/kg (deaths observed at 1.5 mg/kg).
For experiment [10], the system named is Mus musculus. Briefly: Incidence of disease (mouse type II collagen) was scored as the percentage of animals within each experimental group that exhibited joint or limb inflammation on day 44 at intraperitoneal dose of 0.19 mg/kg (deaths observed at 1.5 mg/kg).
For experiment [11], the system named is Mus musculus. Briefly: Tested for antiinflammatory activity on mouse type II collagen arthritis as Paw swelling of all animals in each group on day 37 at intraperitoneal dose of 0.19 mg/kg.
Experiment [12] concerns Mus musculus. The experiment is described as follows: Tested for antiinflammatory activity on mouse type II collagen arthritis as Paw swelling of all animals in each group on day 23 at intraperitoneal dose of 0.047 mg/kg.
Experiment [13] deals with Mus musculus. The experiment is described as follows: Incidence of disease (mouse type II collagen) was scored as the percentage of animals within each experimental group that exhibited joint or limb inflammation on day 44 at intraperitoneal dose of 0.094 mg/kg (deaths observed at 1.5 mg/kg).
In experiment [14] the test system is Mus musculus. Briefly: Tested for antiinflammatory activity on mouse type II collagen arthritis as Paw swelling of all animals in each group on day 44 at intraperitoneal dose of 0.047 mg/kg.
The test system of experiment [15] is Mus musculus. The experiment is described as follows: Incidence of disease (mouse type II collagen) was scored as the percentage of animals within each experimental group that exhibited joint or limb inflammation on day 23 at intraperitoneal dose of 0.19 mg/kg (deaths observed at 1.5 mg/kg).
Experiment [16] relates to Mus musculus. The experiment is described as follows: Tested for antiinflammatory activity on mouse type II collagen arthritis as Paw swelling of all animals in each group on day 44 at intraperitoneal dose of 0.094 mg/kg.

As for `CCc1c(CN(C)c2ccc(C(=O)NC(CCC(=O)O)C(=O)O)cc2)cnc2nc(N)nc(N)c12` (stereo unspecified), the Paw swelling in [1] was 2.33 mm; in experiment [2], 2.2 mm; in experiment [3], 2.14 mm; in experiment [5], 2.21 mm; in experiment [6] it was 2.23 mm; in [7] it was 2.11 mm. The Paw swelling was 2.17 mm in [11], 2.1 mm in [12], 2.57 mm in experiment [14] and 2.27 mm in [16]. The Animals in experiment [4] worked out at 0%; in experiment [8], 0%; in experiment [9] it was 14%; in [10], 12%; in [13], 25%; in [15] it was 0%.
